Test results taken from patent US6635030B1 (B.H.B. LLC, priority 1999, dated 2003).

Assay: Empiric porcine aortic contrast enhancement, dynamic CT after i.v. contrast injection
Type: in vivo, pig
Method: In order to test the mathematical solutions, a porcine study was conducted. All animal care and procedures performed were approved by the Institutional Animal Study Committee. […] Each session was separated by at least two days. Two pigs had all their sessions within a week, while the other two pigs had their first two and last sessions delays 4-5 weeks, which results in an increase in their weight to 35-40 kg in their last session. In each session, the pig was anesthetized, intubated, and underwent scanning for three or four sets of images obtained in random order. During scanning, each pig was ventilated with oxygen and low tidal volume to minimize breathing motion artifact. […] Each set of scans were 45-60 minutes apart to minimize the effect of prior contrast administration. All CT scanning was performed with a Somatom Plus-S scanner (Siemens Medical Systems, […].) using a one-second scanning time and a one-second interscan delay. Three types of injection schemes were tested: uniphasic, biphasic, and multiphasic. Biphasic injections were performed by a prior art power injector which was used in routine clinical CT scanning while uniphasic and multiphasic injections were conducted with a power injector which was invented for achieving the required protocols. This power injector was capable of delivering contrast medium in various uniphasic or multiphasic injection algorithms, as is explained in greater detail below. The multiphasic injection rate is determined by an initial injection rate and an exponential decay coefficient, as shown in FIG. 3. […] Most injections were performed with the initial injection rate of 2 mL/s. […] Three differential exponential decay coefficients (0.007, 0.017, 0.026) were tested. […] These were the three smallest discrete increments allowed in the prototype of the inventive power injector. Decay coefficient higher than 0.03 was not used because it was evident that a further increase in the coefficient would deviate further away from uniform vascular enhancements. A uniphasic injection was determined as being equivalent to a zero exponential decay coefficient where the injection rate remains constant at an initial injection rate throughout the injection duration. […] Approximately half of the total contrast volume was injected in each phase of the biphasic injections. […] Attenuation values of the aorta were measured from post-contrast scans (at the same level as the pre-contrast scans) using a circular region of interest (ROI) at the center of the aorta. Contrast enhancement was calculated as the absolute different in attenuation value between the pre- and post-contrast scans. […] Means and standard deviations were also computed. The results are now explained.

[1] = 25 kg pig, 50 mL of 282 mgI/mL contrast medium, uniphasic 2 mL/sec
[2] = four pigs, 50 mL, 2 mL/s initial injection rate, decay constant 0.017
[3] = four pigs, 70 mL, 2 mL/s initial injection rate, decay constant 0.017

time to the peak aortic enhancement (empiric) [1]: 26 s
SMILES: CNC(=O)c1c(I)c(NC(C)=O)c(I)c(C(=O)O)c1I.CNC[C@H](O)[C@@H](O)[C@H](O)[C@H](O)CO [contrast medium, iothalmate meglumine]
magnitude of the peak aortic enhancement (empiric) [1]: 250 HU
increase of duration of enhancement within 90% of the peak (90%DCE), multiphasic vs uniphasic injection, mean [2]: 81%
reduction of peak aortic enhancement (PA), multiphasic vs uniphasic injection, mean [2]: 19%
decrease of peak aortic enhancement (PA), multiphasic vs uniphasic injection [3]: 18%
increase of duration of enhancement within 90% of the peak (90%DCE), multiphasic vs uniphasic injection [3]: 94%
